In patent US6355799B1, “Substituted benzene compounds, process for their preparation, and herbicidal and defoliant compositions containing them” (ISK Americas Incorporated, priority 1997, dated 2002):

Experiments:
Format in all cases: in vivo
[1] = tested on: redroot pigweed (Amaranthus retroflexus, AMARE); assay: Pre-emerge test, greenhouse herbicide activity screening; settings: pre-emerge, 14 days after application, scale 0-100
Summary of the method: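 Sandy loam pots; pre-emerge: sown 1 d pre-spray, surface-watered after, then bottom-watered. Post-emerge: sown 8–21 d before, 2–3 leaf stage, + 0.25% v/v NIS, bottom-watered. Acetone, 187 l/ha track spray, 15–1000 g ai/ha. 0–100 injury score, day 14.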

[2] = tested on: barnyardgrass (Echinochloa crus-galli, ECHCG); assay: as above; settings: pre-emerge, 14 days after application, scale 0-100
Summary of the method: (§1)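 Visual ratings on a 0-100 scale (0 no damage, 100 all plants dead) were taken at 14 days after treatment. Rates of 15-1000 g ai/ha in acetone, 187 l/ha, were sprayed onto soil one day after planting (pre-emerge) or onto 2-3 leaf plants with 0.25% v/v surfactant (post-emerge).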

[3] = tested on: velvetleaf (Abutilon theophrasti, ABUTH); assay: as above; settings: pre-emerge, 14 days after application, scale 0-100
Summary of the method: as §1

[4] = tested on: ivyleaf morningglory (Ipomoea hederacea, IPOHE); assay: as above; settings: pre-emerge, 14 days after application, scale 0-100
Summary of the method: as §1

[5] = tested on: johnsongrass (Sorghum halepense, SORHA); assay: as above; settings: pre-emerge, 14 days after application, scale 0-100
Summary of the method: as §1

[6] = tested on: large crabgrass (Digitaria sanguinalis, DIGSA); assay: as above; settings: pre-emerge, 14 days after application, scale 0-100
Summary of the method: as §1

[7] = tested on: sicklepod (Cassia obtusifolia, CASOB); assay: as above; settings: pre-emerge, 14 days after application, scale 0-100
Summary of the method: as §1

[8] = tested on: lambsquarters (Chenopodium album, CHEAL); assay: as above; settings: pre-emerge, 14 days after application, scale 0-100
Summary of the method: as §1

[9] = tested on: green foxtail (Setaria viridis, SETVI); assay: as above; settings: pre-emerge, 14 days after application, scale 0-100
Summary of the method: as §1

[10] = tested on: barnyardgrass (Echinochloa crus-galli, ECHCG); assay: Post-emerge test, greenhouse herbicide activity screening; settings: post-emerge, 14 days after application, rating scale 0-100
Summary of the method: (§2)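 Compounds in acetone were track-sprayed at 15-1000 g ai/ha (187 l/ha) on sandy loam pots: pre-emerge one day after seeding, post-emerge at 2-3 leaf stage with 0.25% v/v non-ionic surfactant. Phytotoxicity was rated 14 days later on a 0 (no damage) to 100 (complete death) scale.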

[11] = tested on: velvetleaf (Abutilon theophrasti, ABUTH); assay: as above; settings: post-emerge, 14 days after application, rating scale 0-100
Summary of the method: as §2

[12] = tested on: redroot pigweed (Amaranthus retroflexus, AMARE); assay: as above; settings: post-emerge, 14 days after application, rating scale 0-100
Summary of the method: as §2

[13] = tested on: ivyleaf morningglory (Ipomoea hederacea, IPOHE); assay: as above; settings: post-emerge, 14 days after application, rating scale 0-100
Summary of the method: as §2

[14] = tested on: johnsongrass (Sorghum halepense, SORHA); assay: as above; settings: post-emerge, 14 days after application, rating scale 0-100
Summary of the method: as §2

[15] = tested on: large crabgrass (Digitaria sanguinalis, DIGSA); assay: as above; settings: post-emerge, 14 days after application, rating scale 0-100
Summary of the method: as §2

[16] = tested on: sicklepod (Cassia obtusifolia, CASOB); assay: as above; settings: post-emerge, 14 days after application, rating scale 0-100
Summary of the method: as §2

[17] = tested on: lambsquarters (Chenopodium album, CHEAL); assay: as above; settings: post-emerge, 14 days after application, rating scale 0-100
Summary of the method: as §2

[18] = tested on: green foxtail (Setaria viridis, SETVI); assay: as above; settings: post-emerge, 14 days after application, rating scale 0-100
Summary of the method: as §2

[19] = tested on: upland rice (Oryza sp., var. Tebonnet, RICE); assay: Post-emerge test, crop safety; settings: post-emerge, 14 days after application, rating scale 0-100
Summary of the method: as §1

[20] = tested on: field corn (Zea mays L., var. Dekalb 535, CORN); assay: Post-emerge test, crop safety; settings: post-emerge, 14 days after application, rating scale 0-100
Summary of the method: as §1

[21] = tested on: upland rice (Oryza sp., var. Tebonnet, RICE); assay: Pre-emerge test, crop safety; settings: pre-emerge, 14 days after application, scale 0-100
Summary of the method: (§3)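 Applied at 15–1000 g ai/ha from acetone in 187 l/ha spray volume. Post-emergence applications included 0.25% v/v non-ionic surfactant and reached plants sown 8–21 days before. Pre-emergence applications were incorporated by surface watering. Efficacy or crop damage was rated on a 0–100 scale after 14 days.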

[22] = tested on: field corn (Zea mays L., var. Dekalb 535, CORN); assay: Pre-emerge test, crop safety; settings: pre-emerge, 14 days after application, scale 0-100
Summary of the method: as §3

In the case of `COc1c(Cl)cc(F)c(-n2c(=O)cc(C(F)(F)F)n(C)c2=O)c1NC(=O)C=Cc1ccccc1F` [2-125], the “phytotoxicity rating AMARE” value ([1]; 63 g ai/ha) is reported as 100, the “phytotoxicity rating AMARE” value ([1]; 250 g ai/ha) is reported as 100 and the “phytotoxicity rating ECHCG” value ([2]; 63 g ai/ha) is reported as 10. The “phytotoxicity rating ECHCG” value ([2]; 250 g ai/ha) was 50, the “phytotoxicity rating ABUTH” value ([3]; 63 g ai/ha) was 100 and the “phytotoxicity rating ABUTH” value ([3]; 250 g ai/ha) was 100. For the same compound, the “phytotoxicity rating IPOHE” value ([4]; 63 g ai/ha) was 0, the “phytotoxicity rating IPOHE” value ([4]; 250 g ai/ha) was 100 and the “phytotoxicity rating SORHA” value ([5]; 63 g ai/ha) was 20. For the same compound, the “phytotoxicity rating SORHA” value ([5]; 250 g ai/ha) was 50, the “phytotoxicity rating DIGSA” value ([6]; 63 g ai/ha) was 30 and the “phytotoxicity rating DIGSA” value ([6]; 250 g ai/ha) was 90. The “phytotoxicity rating CASOB” value ([7]; 63 g ai/ha) was 30, the “phytotoxicity rating CASOB” value ([7]; 250 g ai/ha) was 70 and the “phytotoxicity rating CHEAL” value ([8]; 63 g ai/ha) was 100. For the same compound, the “phytotoxicity rating CHEAL” value ([8]; 250 g ai/ha) was 100, the “phytotoxicity rating SETVI” value ([9]; 63 g ai/ha) was 50 and the “phytotoxicity rating SETVI” value ([9]; 250 g ai/ha) was 90. The ECHCG phytotoxicity rating ([10]; 63 g ai/ha) was 20, the ECHCG phytotoxicity rating ([10]; 250 g ai/ha) was 40 and the ABUTH phytotoxicity rating ([11]; 63 g ai/ha) was 100. The ABUTH phytotoxicity rating ([11]; 250 g ai/ha) was 100, the AMARE phytotoxicity rating ([12]; 63 g ai/ha) was 100 and the AMARE phytotoxicity rating ([12]; 250 g ai/ha) was 100. The IPOHE phytotoxicity rating ([13]; 63 g ai/ha) was 100, the IPOHE phytotoxicity rating ([13]; 250 g ai/ha) was 100 and the SORHA phytotoxicity rating ([14]; 63 g ai/ha) was 30. The SORHA phytotoxicity rating ([14]; 250 g ai/ha) was 40, the DIGSA phytotoxicity rating ([15]; 63 g ai/ha) was 20 and the DIGSA phytotoxicity rating ([15]; 250 g ai/ha) was 40. It also gave a CASOB phytotoxicity rating ([16]; 63 g ai/ha) of 90, a CASOB phytotoxicity rating ([16]; 250 g ai/ha) of 100 and a CHEAL phytotoxicity rating ([17]; 63 g ai/ha) of 100. The CHEAL phytotoxicity rating ([17]; 250 g ai/ha) was 100, the SETVI phytotoxicity rating ([18]; 63 g ai/ha) was 40 and the SETVI phytotoxicity rating ([18]; 250 g ai/ha) was 60. The “RICE phytotoxicity rating (crop damage)” value ([19]; 63 g ai/ha) was 40, the “RICE phytotoxicity rating (crop damage)” value ([19]; 250 g ai/ha) was 70 and the “CORN phytotoxicity rating (crop damage)” value ([20]; 63 g ai/ha) was 10. The “CORN phytotoxicity rating (crop damage)” value ([20]; 250 g ai/ha) was 20, the “phytotoxicity rating RICE (crop damage)” value ([21]; 63 g ai/ha) was 0 and the “phytotoxicity rating RICE (crop damage)” value ([21]; 250 g ai/ha) was 45. The “phytotoxicity rating CORN (crop damage)” value ([22]; 63 g ai/ha) was 0 and the “phytotoxicity rating CORN (crop damage)” value ([22]; 250 g ai/ha) was 10.
